Data from PMC5826917, “A small molecule inhibitor of Nicotinamide N-methyltransferase for the treatment of metabolic disorders” (Scientific Reports, 2018).

What was measured:
mice on a high-fat diet = tested on: mice on a high-fat diet; set-up: method as in PMID 29155147; conditions: treatment period of 12 days; cited from earlier work
db/db mice [1] = tested on: db/db mice; set-up: method as in PMID 12217892, PMID 25256010; conditions: two weeks of treatment at 100 µg/kg bid; cited from earlier work
db/db mice [2] = assay: Chronic efficacy study in db/db mice; conditions: db/db mice
Protocol: Samples for MNA were analyzed employing a fit-for-purpose LC-MS/MS method. PE-Sciex API-4000 triple quadrupole (PerkinElmerSciex Instruments, Boston, MA) mass spectrometer was employed for this analysis. Samples (5 µL) were injected onto Kinetex HILIC (50 × 4.6 mm, 2.6 µm; Phenomenex, Torrance, CA, USA) column connected to Shimadzu VP (Shimadzu, Japan) LC system. The gradient mobile phase mixture of 0.2% formic acid and acetonitrile was delivered at a flow rate of 0.45 ml min-1 into the mass spectrometer electrospray ionization (ESI) chamber. Quantitation was achieved by MS/MS detection in positive ion mode for MNA and internal standard (d4–MNA). Detection of the ions was performed in the multiple reaction monitoring (MRM) mode, monitoring the transition of the m/z 137 precursor ion to the m/z 92 product ion for MNA and m/z 141 precursor ion to the m/z 84 product ion for d4-MNA (internal standard).
A simple protein precipitation extraction method was followed for extraction of N-methylnicotinamide from plasma and various tissue homogenate samples. The tissue samples were homogenized with 1:3 proportions of phosphate buffer saline (PBS) and this homogenate was used for N-Methylnicotinamide determinations. To an aliquot of ~50 μL of plasma/ liver homogenate/ adipose tissue homogenate samples ~300 µl of acetonitrile containing IS (d4-MNA) solution was added, followed by vortex for ~3 minutes and centrifuged for 10 minutes at 14,000 rpm. The supernatant was separated and transferred to pre-labeled HPLC vials and analyzed by LC-MS/MS system.
Samples for methylated JBSNF-000088 were analyzed employing a fit-for-purpose LC-MS/MS method. PE-Sciex API-5500 triple quadrupole (PerkinElmerSciex Instruments, Boston, MA) mass spectrometer was employed for this analysis. Samples (2 µL) were injected onto Atlantis dC18 (50 × 4.6 mm, 3 µm; Waters, Milford, MA, USA) column connected to Shimadzu VP (Shimadzu, Japan) LC system. The gradient mobile phase mixture of 0.2% formic acid and acetonitrile was delivered at a flow rate of 0.9 mL min-1 into the mass spectrometer electrospray ionization (ESI) chamber. Quantitation was achieved by MS/MS detection in positive ion mode for methylated JBSNF-000088 and internal standard (Tolbutamide). Detection of the ions was performed in the multiple reaction monitoring (MRM) mode, monitoring the transition of the m/z 168 precursor ion to the m/z 128.8, product ion for MNA and m/z 271 precursor ion to the m/z 91 product ion for tolbutamide (internal standard).
Male C57BL6/N (Vivo Bio Tech Ltd, India), ob/ob (B6.V-Lepob/OlaHsd) and its lean control (Envigo laboratories Inc, USA) and db/db (BKS.Cg- + Leprdb/ + Leprdb/OlaHsd) and its lean control (Envigo laboratories Inc, USA) were housed in individually ventilated cages (n = 5/cage) under standard laboratory conditions. The study room environment was maintained at a temperature of 21–24 °C and, relative humidity at 40–70%. The animal rooms were maintained under 12 h light and dark cycle. Animals were provided with ad libitum access to water and food (except where noted otherwise, e.g. during fasting prior for glucose tolerance tests, fasting prior to terminal sacrifice). Animals were acclimatized for 1 week before initiation of studies. For Diet induced obesity (DIO) mice study, C57BL6/N mice were maintained on rodents chow diet (Teklad; Harlan) or HFD (60% Kcal; Research diet) for 14 weeks before study initiation and throughout the study period. ob/ob and db/db mice and their lean controls were maintained on rodents chow diet (Teklad; Harlan). All the experiments were approved by Institutional Animal Ethics Committee (IAEC) of Jubilant Biosys Ltd, India.
Lean control + Vehicle and HFD + Vehicle Control groups (G1 and G2) mice were administered with vehicle.

NNMT = target: T1, NNMT (Homo sapiens, UniProt P40261); assay: NNMT inhibition by the N-methylated product; assay type: biochemical
T1 sequence (P40261 1-264): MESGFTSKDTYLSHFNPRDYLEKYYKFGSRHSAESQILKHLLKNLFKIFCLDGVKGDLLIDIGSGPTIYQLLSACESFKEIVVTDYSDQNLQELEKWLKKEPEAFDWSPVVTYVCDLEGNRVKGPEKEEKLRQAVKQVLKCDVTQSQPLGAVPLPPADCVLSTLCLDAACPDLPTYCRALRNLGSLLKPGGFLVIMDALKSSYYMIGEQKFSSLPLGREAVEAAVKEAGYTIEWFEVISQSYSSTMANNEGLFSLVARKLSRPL

C[n+]1cccc2c(N)cccc21 [5-Amino-1-methylquinoline]
body weight (mice on a high-fat diet): causes weight loss at preserved food intake

liraglutide
effect on body weight (db/db mice [1]): no effect on body weight
influence on glucose homeostasis (db/db mice [1]): moderate influence on glucose homeostasis

COc1ccc(C(N)=O)c[n+]1C [N-methylated product of JBSNF-000088, -carbamoyl-2-methoxy-1-methylpyridin-1-ium trifluoromethanesulfonate]
detection of methylated compound after oral administration of JBSNF-000088 (db/db mice [2]): could be detected in plasma and adipose tissue
IC50 (NNMT): > 30 µM
inhibition at 30 µM (NNMT; at 30 µM): 20%
